Experimental data taken from ChEMBL document CHEMBL5465560, “Selectivity Literature for EUbOPEN Chemogenomic Library” (2024).
Blank lines part the entries; values can stand above or below the molecule they belong to.

How the values were obtained:
[1] = target: T1, Cyclin-dependent kinase 11A (Homo sapiens) (UniProt Q9UQ88); assay: Selectivity interaction (LanthaScreen Eu Kinase Binding Assay) EUB0001632a CDK11A; conditions: at 10 µM
T1 sequence (whole entry): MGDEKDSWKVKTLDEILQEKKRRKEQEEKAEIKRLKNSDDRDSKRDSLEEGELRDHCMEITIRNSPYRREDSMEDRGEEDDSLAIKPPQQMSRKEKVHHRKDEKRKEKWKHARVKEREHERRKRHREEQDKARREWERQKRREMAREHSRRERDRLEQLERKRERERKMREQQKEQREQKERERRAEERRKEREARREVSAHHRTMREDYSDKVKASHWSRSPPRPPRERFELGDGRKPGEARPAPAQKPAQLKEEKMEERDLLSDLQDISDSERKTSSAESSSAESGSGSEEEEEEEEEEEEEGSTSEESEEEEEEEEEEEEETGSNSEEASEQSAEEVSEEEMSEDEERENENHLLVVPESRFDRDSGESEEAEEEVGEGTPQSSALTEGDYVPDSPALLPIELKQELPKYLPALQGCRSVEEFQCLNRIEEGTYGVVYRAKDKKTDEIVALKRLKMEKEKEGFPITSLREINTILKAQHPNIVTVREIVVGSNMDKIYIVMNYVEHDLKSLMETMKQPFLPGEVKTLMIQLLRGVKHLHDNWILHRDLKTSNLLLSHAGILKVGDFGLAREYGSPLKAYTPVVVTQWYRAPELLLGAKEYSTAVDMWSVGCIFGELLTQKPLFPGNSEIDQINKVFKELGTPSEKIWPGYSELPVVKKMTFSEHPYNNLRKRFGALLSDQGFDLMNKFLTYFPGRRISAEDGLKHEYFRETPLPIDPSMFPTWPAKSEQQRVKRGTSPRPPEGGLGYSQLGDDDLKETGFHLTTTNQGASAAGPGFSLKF

[2] = target: AP2-associated protein kinase 1 (Homo sapiens, UniProt Q2M2I8); assay: Selectivity interaction (KinomeScan (DiscoverX)) EUB0000666a AAK1; conditions: at 10 µM
Sequence of AP2-associated protein kinase 1 (Q2M2I8 whole entry, looked up): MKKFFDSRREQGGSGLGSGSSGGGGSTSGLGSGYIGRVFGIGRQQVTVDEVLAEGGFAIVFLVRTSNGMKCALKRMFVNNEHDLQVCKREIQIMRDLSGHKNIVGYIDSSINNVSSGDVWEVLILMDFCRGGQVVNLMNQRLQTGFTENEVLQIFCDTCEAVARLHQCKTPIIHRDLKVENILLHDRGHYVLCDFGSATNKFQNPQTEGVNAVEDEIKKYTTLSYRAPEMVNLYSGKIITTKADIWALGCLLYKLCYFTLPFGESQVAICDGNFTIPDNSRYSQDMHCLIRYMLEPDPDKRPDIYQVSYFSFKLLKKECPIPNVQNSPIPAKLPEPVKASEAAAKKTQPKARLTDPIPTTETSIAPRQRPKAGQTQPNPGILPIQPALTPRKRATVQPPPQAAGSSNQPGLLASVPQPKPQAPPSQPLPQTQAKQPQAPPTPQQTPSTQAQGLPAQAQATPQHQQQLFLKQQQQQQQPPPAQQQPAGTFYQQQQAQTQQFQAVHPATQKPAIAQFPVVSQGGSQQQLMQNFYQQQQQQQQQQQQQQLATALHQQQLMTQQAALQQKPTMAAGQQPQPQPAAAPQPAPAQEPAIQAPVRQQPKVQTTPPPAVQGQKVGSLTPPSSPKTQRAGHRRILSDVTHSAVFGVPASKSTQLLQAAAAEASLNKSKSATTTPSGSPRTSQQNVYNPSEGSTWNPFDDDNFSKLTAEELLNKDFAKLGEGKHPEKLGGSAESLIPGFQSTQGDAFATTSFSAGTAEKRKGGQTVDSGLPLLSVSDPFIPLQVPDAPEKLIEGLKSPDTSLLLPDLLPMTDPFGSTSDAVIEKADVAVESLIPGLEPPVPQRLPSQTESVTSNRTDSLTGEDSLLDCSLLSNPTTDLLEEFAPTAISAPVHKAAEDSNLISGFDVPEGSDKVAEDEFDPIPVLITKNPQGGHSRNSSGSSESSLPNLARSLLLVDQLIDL

[3] = target: Aurora kinase A (Homo sapiens, UniProt O14965); assay: Selectivity interaction (Kinase panel (33PanQinase(R) Activity Assay)) EUB0000877a STK6
Sequence of Aurora kinase A (O14965 whole entry): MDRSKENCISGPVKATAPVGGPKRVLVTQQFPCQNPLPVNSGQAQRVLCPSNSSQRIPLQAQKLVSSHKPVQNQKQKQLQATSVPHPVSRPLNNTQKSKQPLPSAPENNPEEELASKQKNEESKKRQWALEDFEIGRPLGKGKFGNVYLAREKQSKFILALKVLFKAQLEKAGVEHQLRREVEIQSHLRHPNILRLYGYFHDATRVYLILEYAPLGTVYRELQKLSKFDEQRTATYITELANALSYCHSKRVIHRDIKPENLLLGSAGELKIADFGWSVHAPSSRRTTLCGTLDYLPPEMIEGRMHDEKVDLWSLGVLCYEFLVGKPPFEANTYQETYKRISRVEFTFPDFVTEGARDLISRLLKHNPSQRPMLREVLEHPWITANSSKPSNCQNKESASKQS

[4] = target: Ribosomal protein S6 kinase alpha-3 (Homo sapiens, UniProt P51812); assay: Selectivity interaction (ActivX KiNativ screen (kinase selectivity in THP-1 cell lysates)) EUB0000639a RPS6KA3; assay type: subcellular; conditions: lysate, at 5 µM
Sequence of Ribosomal protein S6 kinase alpha-3 (P51812 whole entry): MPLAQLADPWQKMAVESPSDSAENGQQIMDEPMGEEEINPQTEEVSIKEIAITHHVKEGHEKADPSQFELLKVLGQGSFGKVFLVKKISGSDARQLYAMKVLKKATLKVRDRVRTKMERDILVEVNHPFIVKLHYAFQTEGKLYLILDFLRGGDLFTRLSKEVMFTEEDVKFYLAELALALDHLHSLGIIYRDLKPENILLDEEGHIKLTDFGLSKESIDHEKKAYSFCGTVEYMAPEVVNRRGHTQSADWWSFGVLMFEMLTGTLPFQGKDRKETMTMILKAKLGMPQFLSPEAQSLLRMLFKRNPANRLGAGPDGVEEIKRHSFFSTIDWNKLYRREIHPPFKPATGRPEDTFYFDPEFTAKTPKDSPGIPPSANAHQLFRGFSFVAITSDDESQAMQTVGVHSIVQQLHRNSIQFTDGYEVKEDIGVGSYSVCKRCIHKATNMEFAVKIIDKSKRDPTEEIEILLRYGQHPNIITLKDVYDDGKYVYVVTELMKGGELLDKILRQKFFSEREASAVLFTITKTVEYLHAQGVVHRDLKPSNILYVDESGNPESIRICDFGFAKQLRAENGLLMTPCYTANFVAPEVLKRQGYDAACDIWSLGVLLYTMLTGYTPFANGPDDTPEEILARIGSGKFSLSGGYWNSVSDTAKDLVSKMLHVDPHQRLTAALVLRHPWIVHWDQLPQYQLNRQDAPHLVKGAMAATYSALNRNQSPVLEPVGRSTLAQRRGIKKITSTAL

[5] = target: Serine/threonine-protein kinase B-raf (Homo sapiens) (UniProt P15056); assay: Selectivity interaction (Kinase panel (Invitrogen)) EUB0000639a BRAF; conditions: at 200 nM
Sequence of Serine/threonine-protein kinase B-raf (Homo sapiens) (P15056 whole entry): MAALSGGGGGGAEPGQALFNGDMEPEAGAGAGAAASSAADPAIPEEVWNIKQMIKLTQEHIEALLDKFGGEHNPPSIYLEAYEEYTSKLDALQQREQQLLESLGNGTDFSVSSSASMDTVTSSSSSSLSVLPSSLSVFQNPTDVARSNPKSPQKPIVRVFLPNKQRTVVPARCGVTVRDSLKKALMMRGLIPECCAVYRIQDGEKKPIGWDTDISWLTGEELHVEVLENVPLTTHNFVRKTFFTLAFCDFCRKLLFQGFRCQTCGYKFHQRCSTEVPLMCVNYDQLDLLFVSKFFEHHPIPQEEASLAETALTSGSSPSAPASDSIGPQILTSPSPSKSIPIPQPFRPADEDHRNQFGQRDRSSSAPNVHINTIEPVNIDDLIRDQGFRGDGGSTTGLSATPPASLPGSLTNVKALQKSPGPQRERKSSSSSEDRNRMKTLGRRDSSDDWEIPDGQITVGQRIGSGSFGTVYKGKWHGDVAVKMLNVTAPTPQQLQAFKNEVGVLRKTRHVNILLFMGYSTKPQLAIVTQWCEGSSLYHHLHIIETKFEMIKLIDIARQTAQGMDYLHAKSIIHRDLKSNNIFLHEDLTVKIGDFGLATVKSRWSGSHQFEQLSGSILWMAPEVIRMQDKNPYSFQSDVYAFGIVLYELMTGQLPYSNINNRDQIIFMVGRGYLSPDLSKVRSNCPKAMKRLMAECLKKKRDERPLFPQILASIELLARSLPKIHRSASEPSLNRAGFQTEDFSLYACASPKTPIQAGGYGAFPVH

[6] = target: Glycogen synthase kinase-3 beta (Homo sapiens, UniProt P49841); assay: Selectivity interaction (Millipore kinase profiler) EUB0000124b GSK3B; conditions: at 10 µM
Sequence of Glycogen synthase kinase-3 beta (P49841 whole entry, looked up): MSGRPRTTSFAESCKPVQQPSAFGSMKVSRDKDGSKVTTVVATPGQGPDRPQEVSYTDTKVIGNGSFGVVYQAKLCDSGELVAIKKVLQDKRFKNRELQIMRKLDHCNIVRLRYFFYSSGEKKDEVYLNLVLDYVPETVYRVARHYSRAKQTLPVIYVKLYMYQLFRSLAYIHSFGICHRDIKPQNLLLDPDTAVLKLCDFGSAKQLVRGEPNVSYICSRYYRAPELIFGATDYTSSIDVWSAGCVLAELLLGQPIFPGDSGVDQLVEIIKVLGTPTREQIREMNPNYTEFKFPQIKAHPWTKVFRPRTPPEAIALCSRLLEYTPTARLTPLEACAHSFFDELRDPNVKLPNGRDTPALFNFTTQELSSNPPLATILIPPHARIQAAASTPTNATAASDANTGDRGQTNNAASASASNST

[7] = target: Mu-type opioid receptor (Homo sapiens, UniProt P35372); assay: Selectivity interaction (Panel of kinases, GPCRs, ion channels and transporters (enzymatic assay)) EUB0000223bCl OPRM1
Sequence of Mu-type opioid receptor (P35372 whole entry): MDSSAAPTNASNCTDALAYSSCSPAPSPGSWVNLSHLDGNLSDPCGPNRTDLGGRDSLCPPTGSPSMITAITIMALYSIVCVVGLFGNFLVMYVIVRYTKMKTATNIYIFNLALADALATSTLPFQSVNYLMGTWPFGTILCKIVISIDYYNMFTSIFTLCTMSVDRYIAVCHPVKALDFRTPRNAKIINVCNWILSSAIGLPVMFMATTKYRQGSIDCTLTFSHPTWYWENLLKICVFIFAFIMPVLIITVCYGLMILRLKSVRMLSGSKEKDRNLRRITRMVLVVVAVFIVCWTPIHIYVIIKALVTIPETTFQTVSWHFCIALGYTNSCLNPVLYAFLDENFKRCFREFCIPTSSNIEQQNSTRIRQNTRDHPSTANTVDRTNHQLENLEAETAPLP

[8] = target: Serine/threonine-protein kinase 38-like (Homo sapiens) (UniProt Q9Y2H1); assay: Selectivity interaction (Kinase panel (KiNativ target engagement assay in Jurkat cells)) EUB0001635a STK38L; assay type: cell-based; conditions: Selectivity number of off-targets 0.0, Selectivity number of targets 233.0, Source Knowledge https://www.sciencedirect.com/science/article/pii/S2451945619300674?via%3Dihub, at 1 µM
Sequence of Serine/threonine-protein kinase 38-like (Homo sapiens) (Q9Y2H1 2-464 limits assumed): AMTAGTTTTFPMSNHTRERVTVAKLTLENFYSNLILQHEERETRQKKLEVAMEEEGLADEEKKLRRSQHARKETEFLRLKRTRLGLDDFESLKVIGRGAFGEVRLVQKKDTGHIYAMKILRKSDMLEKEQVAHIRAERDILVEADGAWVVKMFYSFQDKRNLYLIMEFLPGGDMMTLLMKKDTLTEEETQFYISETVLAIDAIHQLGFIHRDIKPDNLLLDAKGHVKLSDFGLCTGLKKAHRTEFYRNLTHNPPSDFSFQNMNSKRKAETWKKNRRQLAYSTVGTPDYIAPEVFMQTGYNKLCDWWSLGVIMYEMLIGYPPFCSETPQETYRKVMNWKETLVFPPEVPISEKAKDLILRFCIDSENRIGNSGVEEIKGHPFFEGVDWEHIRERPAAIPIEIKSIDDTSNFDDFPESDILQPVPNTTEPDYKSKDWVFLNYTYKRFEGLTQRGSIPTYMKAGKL

[9] = target: Aurora kinase B (Homo sapiens, UniProt Q96GD4); assay: Selectivity interaction (Enzymatic assay) EUB0001550a AURKB
Sequence of Aurora kinase B (Q96GD4 whole entry): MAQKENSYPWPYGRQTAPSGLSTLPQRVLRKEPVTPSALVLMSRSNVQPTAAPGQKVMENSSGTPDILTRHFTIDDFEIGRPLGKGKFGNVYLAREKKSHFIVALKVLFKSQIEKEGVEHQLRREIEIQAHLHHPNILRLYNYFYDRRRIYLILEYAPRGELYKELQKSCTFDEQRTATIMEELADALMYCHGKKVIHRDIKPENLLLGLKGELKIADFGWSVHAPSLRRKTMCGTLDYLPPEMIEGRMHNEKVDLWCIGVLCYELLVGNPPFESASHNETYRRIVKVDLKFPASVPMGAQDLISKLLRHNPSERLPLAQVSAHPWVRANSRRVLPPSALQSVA

[10] = target: T2, Bromodomain and PHD finger-containing protein 3 (Homo sapiens) (UniProt Q9ULD4); assay: Selectivity interaction (Bromodomain panel (DSF asssay)) EUB0000270b BRPF3
T2 sequence (whole entry): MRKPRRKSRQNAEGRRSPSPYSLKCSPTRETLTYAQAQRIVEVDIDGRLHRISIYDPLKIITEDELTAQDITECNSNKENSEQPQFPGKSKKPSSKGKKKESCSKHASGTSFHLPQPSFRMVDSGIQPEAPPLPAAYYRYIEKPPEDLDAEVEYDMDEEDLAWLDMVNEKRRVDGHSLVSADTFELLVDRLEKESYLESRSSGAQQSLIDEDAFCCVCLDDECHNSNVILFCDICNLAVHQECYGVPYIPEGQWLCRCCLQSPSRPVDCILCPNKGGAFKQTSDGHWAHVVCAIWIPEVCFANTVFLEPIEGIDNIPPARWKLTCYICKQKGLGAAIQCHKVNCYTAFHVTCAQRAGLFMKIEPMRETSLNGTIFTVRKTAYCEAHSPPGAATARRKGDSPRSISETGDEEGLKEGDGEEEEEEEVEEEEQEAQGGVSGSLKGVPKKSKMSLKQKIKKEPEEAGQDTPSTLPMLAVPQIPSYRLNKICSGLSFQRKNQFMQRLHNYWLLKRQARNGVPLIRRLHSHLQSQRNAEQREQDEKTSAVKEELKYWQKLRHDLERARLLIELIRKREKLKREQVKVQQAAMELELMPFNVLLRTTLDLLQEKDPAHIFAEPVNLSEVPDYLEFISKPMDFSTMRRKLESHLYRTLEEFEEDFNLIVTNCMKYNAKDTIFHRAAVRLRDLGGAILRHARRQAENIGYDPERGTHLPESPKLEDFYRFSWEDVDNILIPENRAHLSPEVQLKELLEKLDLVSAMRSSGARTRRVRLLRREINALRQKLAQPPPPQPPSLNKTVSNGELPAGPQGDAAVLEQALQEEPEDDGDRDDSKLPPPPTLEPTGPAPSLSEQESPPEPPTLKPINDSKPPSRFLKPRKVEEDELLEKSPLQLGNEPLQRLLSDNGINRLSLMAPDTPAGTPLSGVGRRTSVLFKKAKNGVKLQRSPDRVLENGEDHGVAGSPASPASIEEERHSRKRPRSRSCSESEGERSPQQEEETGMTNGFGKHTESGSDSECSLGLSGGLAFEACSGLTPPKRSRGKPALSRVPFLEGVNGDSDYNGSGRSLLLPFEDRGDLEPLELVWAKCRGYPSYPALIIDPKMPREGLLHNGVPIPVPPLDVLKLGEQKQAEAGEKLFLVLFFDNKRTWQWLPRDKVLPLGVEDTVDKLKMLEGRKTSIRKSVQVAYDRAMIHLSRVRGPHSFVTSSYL

[11] = target: RAC-gamma serine/threonine-protein kinase (Homo sapiens, UniProt Q9Y243); assay: Selectivity interaction (KinomeScan (DiscoverX)) EUB0000618a AKT3; conditions: at 10 µM
Sequence of RAC-gamma serine/threonine-protein kinase (Q9Y243 whole entry): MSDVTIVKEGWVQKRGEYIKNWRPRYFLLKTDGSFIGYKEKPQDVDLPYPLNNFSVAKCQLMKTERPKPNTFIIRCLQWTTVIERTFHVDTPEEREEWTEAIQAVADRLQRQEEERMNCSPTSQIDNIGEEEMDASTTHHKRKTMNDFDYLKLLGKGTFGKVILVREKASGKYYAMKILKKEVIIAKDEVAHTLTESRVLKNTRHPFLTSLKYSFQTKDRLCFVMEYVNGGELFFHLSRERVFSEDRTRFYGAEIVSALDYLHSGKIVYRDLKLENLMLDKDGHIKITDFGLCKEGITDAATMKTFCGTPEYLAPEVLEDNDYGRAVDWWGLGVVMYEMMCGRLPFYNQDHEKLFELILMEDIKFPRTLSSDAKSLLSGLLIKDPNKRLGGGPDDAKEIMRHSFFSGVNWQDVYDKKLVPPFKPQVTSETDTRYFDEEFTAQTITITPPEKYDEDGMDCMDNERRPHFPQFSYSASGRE

SMILES: O=C(NOC[C@H](O)CO)c1ccc(F)c(F)c1Nc1ccc(I)cc1F
% of control [2]: 100%

SMILES: CCC(=O)N1CC[C@H](Nc2ncnc3c2CN(c2cnc(OC)c(C(F)(F)F)c2)CC3)C1 [LENIOLISIB]
IC50 [3]: > 10000 nM

SMILES: COc1cc(C(=O)N2CC[C@@H](O)[C@@H](N)C2)cc2nc(-c3cc4ccccc4n3CC3CC3)n(C)c12
pXC50 [7]: < 4 M

SMILES: C=CC(=O)Nc1ccc(C(=O)Nc2[nH]nc3c2CN(C(=O)N[C@H](CN(C)C)c2ccccc2)C3(C)C)cc1
% of engagement [8]: 3.8%

SMILES: CN(C)CC#Cc1ccc2[nH]c3c(c2c1)-c1nc(N)ncc1CCC3
IC50 [9]: 1400 nM

SMILES: Cc1cc(CN)cc(C)c1-c1ncn(C)c1-c1cncn1C
dTM [10]: -2.18 K

SMILES: O[C@H]1CC[C@H](Nc2ncc3nc(Nc4c(F)cc(F)cc4F)n([C@H]4CCOC4)c3n2)CC1
% of control [11]: 100%

The remaining lines, values ahead:

% of inhibition [1]: -1.94%
SMILES: Cn1cc(-n2cnc3c(NCc4nc5cc(Cl)c(Cl)cc5[nH]4)nc(N4CCOCC4)nc32)cn1

% of inhibition [4]: 1.6% | % of inhibition [5]: 28.7%
SMILES: CC[C@@H]1[C@H](F)C(=O)N[C@@H]1COc1nccc2cc(C(N)=O)c(OC)cc12 [ZIMLOVISERTIB]

% of control [6]: 98%
SMILES: CC(=O)Nc1cccc(-n2c(=O)n(C3CC3)c(=O)c3c(Nc4ccc(I)cc4F)n(C)c(=O)c(C)c32)c1
